Counter-ions that a name gives are not always drawn. Calls of active or inactive are those of the source. The rule behind the calls is not given here.
How the values were obtained:
[1] = target: Cholinesterase (Equus caballus) (UniProt P81908); assay: Reversible mixed-type inhibition of Equus caballus (horse) serum butyrylcholinesterase (BChE) assessed as inhibition of BTCh hydrolysis by Ellman method
Acetylcholinesterase = Acetylcholinesterase (Electrophorus electricus, UniProt O42275); assay: Inhibition of Electrophorus electricus (electric eel) acetylcholinesterase (AChE) assessed as inhibition of ATCh hydrolysis by Ellman method
Sequence of Acetylcholinesterase (O42275 whole entry): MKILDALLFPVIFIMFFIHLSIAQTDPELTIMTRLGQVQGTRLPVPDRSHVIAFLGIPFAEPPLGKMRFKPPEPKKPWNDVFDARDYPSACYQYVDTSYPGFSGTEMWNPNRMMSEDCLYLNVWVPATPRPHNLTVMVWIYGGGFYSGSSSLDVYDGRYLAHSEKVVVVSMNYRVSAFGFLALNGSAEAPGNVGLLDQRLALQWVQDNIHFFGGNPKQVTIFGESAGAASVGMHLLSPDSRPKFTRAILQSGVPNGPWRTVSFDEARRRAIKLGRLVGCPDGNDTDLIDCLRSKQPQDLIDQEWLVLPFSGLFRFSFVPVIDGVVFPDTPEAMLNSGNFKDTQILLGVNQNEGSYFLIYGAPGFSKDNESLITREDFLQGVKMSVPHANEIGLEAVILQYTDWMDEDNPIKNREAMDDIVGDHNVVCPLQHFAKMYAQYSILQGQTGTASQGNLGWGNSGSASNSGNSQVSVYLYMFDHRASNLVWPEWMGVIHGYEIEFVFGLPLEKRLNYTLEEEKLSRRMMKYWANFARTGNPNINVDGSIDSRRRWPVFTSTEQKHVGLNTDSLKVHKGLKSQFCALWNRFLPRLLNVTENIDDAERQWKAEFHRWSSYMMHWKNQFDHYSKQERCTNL

Cholinesterase = Cholinesterase (Equus caballus, UniProt P81908); assay: Inhibition of Equus caballus (horse) serum butyrylcholinesterase (BChE) assessed as inhibition of BTCh hydrolysis by Ellman method
Sequence of Cholinesterase (P81908 whole entry): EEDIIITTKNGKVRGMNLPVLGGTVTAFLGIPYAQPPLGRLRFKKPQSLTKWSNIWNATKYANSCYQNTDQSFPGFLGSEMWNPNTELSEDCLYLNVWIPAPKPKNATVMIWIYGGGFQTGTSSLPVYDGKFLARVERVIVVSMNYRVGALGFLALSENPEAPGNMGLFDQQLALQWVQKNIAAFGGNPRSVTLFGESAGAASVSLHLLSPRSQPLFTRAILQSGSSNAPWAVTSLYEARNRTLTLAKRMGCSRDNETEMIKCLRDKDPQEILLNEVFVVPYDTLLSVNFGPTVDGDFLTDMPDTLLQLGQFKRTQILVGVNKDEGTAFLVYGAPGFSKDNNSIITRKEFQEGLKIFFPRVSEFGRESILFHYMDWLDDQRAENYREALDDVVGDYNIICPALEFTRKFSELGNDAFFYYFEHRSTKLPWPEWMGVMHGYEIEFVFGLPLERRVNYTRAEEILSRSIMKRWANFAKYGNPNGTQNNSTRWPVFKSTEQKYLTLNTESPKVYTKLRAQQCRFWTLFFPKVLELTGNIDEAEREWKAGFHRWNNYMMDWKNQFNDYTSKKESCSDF

Sequence of Cholinesterase (Equus caballus) (P81908 whole entry): as above

Compound | inhibition [1] | Ki (Acetylcholinesterase; read-out: Ki) [µM] | Ki (Acetylcholinesterase; read-out: pKi (converted)) [µM] | Ki (Cholinesterase; read-out: Ki) [µM] | Ki (Cholinesterase; read-out: pKi (converted)) [µM]
CCOC(=O)C1=C(COCCN)NC(C)=C(C(=O)OC)C1c1ccccc1Cl (centres undefined) | Active |  |  |  | 
CNC1=Nc2ccc(Cl)cc2C(c2ccccc2)=[N+]([O-])C1 | Active |  |  |  | 
CN1C(=O)CN=C(c2ccccc2)c2cc(Cl)ccc21 [DIAZEPAM] | Active | 13 | 251 |  | 
NNc1nncc2ccccc12 [HYDRALAZINE HYDROCHLORIDE] | Active | 7 | 251 | 1.9 | 5.01
CC[C@H](C)C(=O)O[C@H]1C[C@@H](C)C=C2C=C[C@H](C)[C@H](CC[C@@H]3C[C@@H](O)CC(=O)O3)[C@H]21 [LOVASTATIN] | Active | 2.7 | 251 | 1.1 | 5.01
COC(=O)C1=C(C)NC(C)=C(C(=O)OC)C1c1ccccc1[N+](=O)[O-] [NIFEDIPINE] | Active | 4 | 251 | 1.2 | 5.01
CCC(C)(C)C(=O)O[C@H]1C[C@@H](C)C=C2C=C[C@H](C)[C@H](CC[C@@H]3C[C@@H](O)CC(=O)O3)[C@H]21 [SIMVASTATIN] |  | 1.8 | 251 | 0.75 | 5.01
